Assay results as given in ChEMBL document CHEMBL1125958, “Antihypertensive benzopyran-related potassium channel activators: a role for lipophilicity” (Bioorg Med Chem Lett, 1991).

Assays:
Rattus norvegicus [1] = experiment: Compound was tested for mean arterial pressure in the spontaneously hypertensive rat, activity expressed as mean arterial pressure before peroral administration of 0.17 mg/Kg dose; assay type: functional, Artery
Rattus norvegicus [2] = experiment: Compound was tested for mean arterial pressure in the spontaneously hypertensive rat, activity expressed as maximum % change in pressure after 3 hours of oral administration of 1.5 mg/Kg; assay type: functional, Artery

Row | SMILES | Mean arterial blood pressure (Rattus norvegicus [1]) [mmHg] | Change (Rattus norvegicus [2]) [%]
1 | CC1(C)c2ccc(C#N)cc2[C@@H](NC(=O)c2ccco2)[C@@H]1O | 182 | -35
2 | CC1(C)Oc2ccccc2[C@@H](N2Cc3ccccc3C2=O)[C@@H]1O | 184 | -26
3 | CC1(C)Oc2ccc(C#N)cc2[C@@H](N2Cc3ccccc3C2=O)[C@@H]1O | 173 | -23
4 | CC1(C)Oc2ccc(OC(F)(F)F)cc2[C@@H](NC(=O)c2ccco2)[C@@H]1O | 175 | -30
5 | CC1(C)Oc2ccc(C#N)cc2[C@@H](N2CCCC2=O)[C@@H]1O [CROMAKALIM] | 171 | -28
6 | CC1(C)Oc2ccc(OC(F)(F)F)cc2[C@@H](N2Cc3ccccc3C2=O)[C@@H]1O [CELIKALIM] | 180 | -28
